Non-standard residues stand in square brackets, D forms with d. No end group written: not given here. pGlu = O=C1CC[C@@H](C(=O)O)N1
Key:
[1] = tested on: Anopheles gambiae Sua 4.0 cells; assay: Sua 4.0 mosquito cell viability (erythrosin B exclusion); type: cell-based; set-up: dose or concentration left out as unconfirmed; conditions: after 48 h culture; for Average viability of cells (3 replicates), peptide: erythrosin B exclusion, 100 cells in triplicate wells; for Reduction in cell viability: versus control
Method: (§1) To establish potential effects of AMPs on mosquito cells, the An. gambiae Sua 4.0 cell line was used. This facilitated an initial high-throughput screening and provided insights into AMP toxicity, mode of action (lytic or other) and speed of action. Sua 4.0 cells were maintained at 27°C in Schneider's insect medium supplemented with 10% FBS (foetal bovine serum) in T25 culture flasks (Fisher, UK).
(§2) Each AMP was tested separately to establish if it affected cell viability and growth. […] Cells were maintained for 3, 6, 24 or 48 h, after which they were resuspended and a sub-sample from duplicate wells counted using a haemocytometer. To establish cell viability after 48 h (whether simply arrested in development or non-viable), resuspended cells were added to an equal volume of 5% erythrosin B vital dye and viable cells excluding the stain were counted. The viability of 100 cells in triplicate wells was recorded. Each AMP assay was performed in triplicate and included a negative control minus the peptide (5 µl of water alone added to the medium) and a further control of 5 µl of 10% SDS (sodium dodecyl sulphate) substituted for the AMP as this causes 100% cell lysis.

P. berghei ookinetes = assay: P. berghei ookinete viability in vitro (erythrosin B); type: cell-based, Plasmodium berghei; conditions: for Average ookinete viability (3 reps), peptide / Reduction in ookinete viability: 30 min; for Reduction in ookinete viability: versus control
Method: Our primary aim was to target parasites in mosquitoes before they cross the midgut wall, therefore AMPs were first assessed for their ability to kill ookinetes in vitro. […] Ookinete cultures of P. berghei were established from gametocytaemic blood as previously described. Parasites were enriched using cold 0.17M ammonium chloride after 18 h of culture and washed thoroughly with PBS (phosphate buffered saline). Parasites were seeded in triplicate wells of a 96-well microtitre plate at a density of 1×10^5/ml in a volume of 47.5 µl Schneider's insect medium (Invitrogen) with 2.5 µl of the test AMP (final concentration of 50 µM). Ookinetes were incubated for 30 min in conjunction with triplicate control wells containing medium with 2.5 µl of water instead of AMP. A sub-sample of parasites was then added to an equal volume of 5% erythrosin B to assess viability (150 ookinetes in total, taken from 3 wells). Each of the 33 AMPs was screened in this way and assays were performed 3 times. AMPs displaying a high degree of toxicity (>90% of ookinetes displaying erythrosin B staining) underwent further ookinete assays using a concentration of 100 µM AMP. To assess synergistic effects, combinations of two peptides were also tested at a concentration of 25 µM per AMP, in the assay described above.

[2] = tested on: An. gambiae (Mali strain); assay: Mosquito longevity after blood feeds containing AMP; type: in vivo, Anopheles gambiae; conditions: for Significance of effect on longevity over 10 days: 50 µM AMP, Kaplan-Meier, Wilcoxon, peptide vs control; for Percent alive, peptide: over 10 days, 50 µM AMP in human blood, feeds on days 0 and 7, 3 or 4 replicates
Method: (§3) Female An. gambiae (Mali strain, 3–5 days old) were used to establish the effects of AMPs on mosquito longevity and fecundity in the absence of confounding factors introduced with parasite infection. Two hundred 3–6 day old females were fed on human O+ whole blood supplemented with 50 µM AMP (or water control, 1 ml total volume) via feeding chambers of a Hemotek membrane feeding system. Fully engorged mosquitoes were randomly moved into four separate cages, each containing 25 mosquitoes, to facilitate monitoring. Mortality rates were recorded daily for a 10-day period, and oviposition sites were provided on the second and third night post-feeding. A second blood feed containing the same AMP was administered 7 days later to mimic the likelihood that mosquitoes would feed at least twice in the field during the development of sporogonic stages of the malaria parasite. Oviposition sites were again provided to assess fecundity through the number of eggs laid as an average per surviving mosquito. Assays for each AMP were repeated in triplicate on separate generations of mosquitoes. Due to egg retention under experimental conditions, egg production is best measured by dissecting mosquitoes that have not been provided with an oviposition site. However, this is not a feasible method of determining fecundity when longevity is also being measured.

[3] = tested on: An. gambiae (Mali strain); assay: Mosquito oviposition after blood feed containing AMP; type: in vivo, Anopheles gambiae; conditions: for Significance of effect on oviposition: 50 µM AMP, one-way ANOVA, peptide vs control; for Mean no. of eggs laid per mosquito, peptide: after first feed with 50 µM AMP, eggs laid over two nights, averaged per surviving mosquito, 3 or 4 replicates
Method: as §3

P. berghei = P. berghei infections in Anopheles stephensi (oocyst prevalence and intensity); type: in vivo, Plasmodium berghei; conditions: for Prevalence (proportion of infected mosquitoes), peptide: 50 µM peptide in gametocytaemic mouse blood fed to An. stephensi; for Intensity (mean number of oocysts, range in parentheses), peptide: 50 µM peptide, An. stephensi
Method: To assess the effects of AMPs on parasites in vivo, mouse blood containing P. berghei gametocytes was obtained by cardiac puncture and 475 µl was rapidly mixed with 25 µl (50 µM final concentration) of AMP. This mixture was fed to 100 nulliparous 3–5 day old female An. stephensi. A further 475 µl of blood from the same infection was mixed with 25 µl of distilled water to act as a control. Mosquitoes were maintained at 19°C for optimum parasite development. Between 30 and 50 mosquitoes were dissected after 10 days. Mosquito wing length, numbers of retained eggs and oocysts were recorded in triplicate experiments carried out on different mosquito cohorts.

[4] = tested on: Anopheles gambiae Sua 4.0 cells; assay: Sua 4.0 mosquito cell growth (cell counts); type: cell-based; conditions: 25 µM AMP; for Average number of cells over 3 replicates, peptide: seeded 30×10^4/ml, mean of 3 experiments
Method: as §1, §2

P. falciparum = assay: Field P. falciparum from gametocyte carriers membrane-fed to An. gambiae (Mali); type: in vivo, Plasmodium falciparum; conditions: Replicate 1, 50 µM; for Oocyst prevalence (oocyst positive mosquitoes), peptide: blood of gametocyte carriers, progeny of field An. gambiae; for Oocyst intensity (mean number of oocysts per gut, range in parentheses), peptide: field parasites and mosquitoes
Excerpt: Nyaganabougou, a village approximately 60 km south-west of the Malian capital, Bamako, was used as a site for the source of donors of malaria-infected blood. Due to its proximity to the river Niger, which provides perennial mosquito breeding sites, Nyaganabougou has high numbers of infected individuals and an extended transmission season. Mosquitoes used to establish the An. gambiae Mali colony used for this study were originally collected in the village of Kenieroba (a distance of 15 km from Nyaganabougou). Potential male and female gametocyte carriers between the ages of 6–10 were screened by thick smear and parasite species and density determined by local staff, led by Saibou Doumbia.
Gametocyte carriers were taken to the Malaria Research and Training Centre at the University of Bamako for blood donation. Approximately 4 ml of blood was extracted from carriers and immediately divided into 3 Hemotek membrane feeders for testing 2 separate AMPs and one control for each carrier. Peptides were added to 950 µl of gametocytaemic blood for a final concentration of 50 µM. All parasite-positive individuals were subsequently treated appropriately for parasites and associated symptoms, as determined by, and carried out by, local health workers in Nyaganabougou.
Approximately 120 adult female An. gambiae (Mali, 4–7 days old) were starved overnight, and allowed to feed on the gametocytaemic blood/AMP mix for 30 min. Engorged females were maintained on 10% glucose with 0.05% PABA for 8 days before dissection. No oviposition sites were provided so that fecundity could be measured by determining retained eggs. Mosquito wing length, numbers of retained eggs and oocysts were recorded, and triplicate peptide experiments were carried out on different mosquito cohorts, using blood from different donors. Where possible, a minimum of 50 mosquitoes were dissected for each condition.

[5] = 50 µM of single peptide, n = 150 ookinetes per treatment per replicate

CC[C@H](C)[C@H](N)C(=O)N[C@@H](CC(C)C)C(=O)N1CCC[C@H]1C(=O)N[C@@H](Cc1c[nH]c2ccccc12)C(=O)N[C@@H](CCCCN)C(=O)N[C@@H](Cc1c[nH]c2ccccc12)C(=O)N1CCC[C@H]1C(=O)N[C@@H](Cc1c[nH]c2ccccc12)C(=O)N[C@@H](Cc1c[nH]c2ccccc12)C(=O)N1CCC[C@H]1C(=O)N[C@@H](Cc1c[nH]c2ccccc12)C(=O)N[C@@H](CCCNC(=N)N)C(=O)N[C@@H](CCCNC(=N)N)C(N)=O [Indolicidin]
Average viability of cells (3 replicates), peptide [1]: 61%
Reduction in cell viability [1]: 36%

Scorpine
Efficacy against malaria parasites (in words) (P. berghei ookinetes; in our hands, rodent or human malaria, test not specified further, actual concentration may have been lower than expected): not effective against rodent or human malaria

GLLKRIKTLL [Anoplin, 10 aa peptide isolated from the solitary wasp, homology to Mastoparan X]
Significance of effect on longevity over 10 days [2]: N/S
Percent alive, peptide [2]: 80%
Significance of effect on oviposition [3]: N/S
Mean no. of eggs laid per mosquito, peptide [3]: 36
Average ookinete viability (3 reps), peptide (P. berghei ookinetes; [5]): 10%
Reduction in ookinete viability (P. berghei ookinetes; 50 µM of single peptide): 89%
Average ookinete viability (3 reps), peptide (P. berghei ookinetes; 100 µM of single peptide): 2%
Reduction in ookinete viability (P. berghei ookinetes; 100 µM of single peptide): 98%
Prevalence (proportion of infected mosquitoes), peptide (P. berghei; Replicate 1): 66% (44)
Intensity (mean number of oocysts, range in parentheses), peptide (P. berghei; Replicate 1): 21 (0–147)
Prevalence (proportion of infected mosquitoes), peptide (P. berghei; Replicate 2): 98% (50)
Intensity (mean number of oocysts, range in parentheses), peptide (P. berghei; Replicate 2): 74 (0–580)
Prevalence (proportion of infected mosquitoes), peptide (P. berghei; Replicate 3): 100% (50)
Intensity (mean number of oocysts, range in parentheses), peptide (P. berghei; Replicate 3): 177 (1–666)

CKQSCSFGPFTFVCDGNTK (also: bicyclic or more (positions not given here)) [Duramycin, A lantibiotic from bacteria, 19 aa (Sigma D3168)]
Significance of effect on longevity over 10 days [2]: N/S
Percent alive, peptide [2]: 84%
Reduction in cell number (compared to control) ([4]; 3 hrs in culture): 42%
Average number of cells over 3 replicates, peptide ([4]; 3 hrs in culture, haemocytometer count of duplicate wells): 180000 mL⁻¹
Reduction in cell number (compared to control) ([4]; 24 hrs in culture): 73%
Average number of cells over 3 replicates, peptide ([4]; 24 hrs in culture): 130000 mL⁻¹
Reduction in cell number (compared to control) ([4]; 48 hrs in culture): 88%
Average number of cells over 3 replicates, peptide ([4]; 48 hrs in culture): 90000 mL⁻¹
Significance of effect on oviposition [3]: N/S
Mean no. of eggs laid per mosquito, peptide [3]: 39
Average ookinete viability (3 reps), peptide (P. berghei ookinetes; [5]): 11%
Reduction in ookinete viability (P. berghei ookinetes; 50 µM of single peptide): 88%
Average ookinete viability (3 reps), peptide (P. berghei ookinetes; 100 µM of single peptide): 1%
Reduction in ookinete viability (P. berghei ookinetes; 100 µM of single peptide): 99%
Prevalence (proportion of infected mosquitoes), peptide (P. berghei; Replicate 1): 80% (50)
Intensity (mean number of oocysts, range in parentheses), peptide (P. berghei; Replicate 1): 17 (0–114)
Prevalence (proportion of infected mosquitoes), peptide (P. berghei; Replicate 2): 88% (50)
Intensity (mean number of oocysts, range in parentheses), peptide (P. berghei; Replicate 2): 59 (0–294)
Prevalence (proportion of infected mosquitoes), peptide (P. berghei; Replicate 3): 98% (50)
Intensity (mean number of oocysts, range in parentheses), peptide (P. berghei; Replicate 3): 135 (0–319)
Average viability of cells (3 replicates), peptide [1]: 0%
Reduction in cell viability [1]: 100%

[pGlu]GMIGTLTSKRIKQ [Levitide, Isolated from skin secretions of Xenopus laevis]
Oocyst prevalence (oocyst positive mosquitoes), peptide (P. falciparum): 8% (60)
Oocyst intensity (mean number of oocysts per gut, range in parentheses), peptide (P. falciparum): <1 (0–1)

RRWQWRMKKLG [Lactoferricin B, Product of pepsin cleavage of bovine lactoferrin]
Oocyst prevalence (oocyst positive mosquitoes), peptide (P. falciparum): 46% (37)
Oocyst intensity (mean number of oocysts per gut, range in parentheses), peptide (P. falciparum): 2 (0–17)
